Experimental data as given in patent US20240133884A1, “COMPOSITIONS AND METHODS FOR DETECTING TRYPANOSOMA CRUZI INFECTION” (University of Georgia Research Foundation, Inc., priority 2022, published 2024).

Key:
Standard Ames study = type: cell-based
[1] = system: mammalian enzymes, receptors and ion channels; assay: Safety pharmacology: affinity for a broad array of mammalian enzymes, receptors and ion channels; type: binding
T. cruzi (CL strain) = assay: Rapid in vivo assay: mouse footpad infection with tdTomato-expressing T. cruzi, single oral dose; set-up: species or system Trypanosoma cruzi; details: mice, reduced doses (FIG. 1B)
Description: Fluorescent intensity of the feet was measured at 2 dpi before compound administration and at 4 dpi in the Maestro in vivo imaging system equipped with the software Maestro 2.1.0 (CRi) as previously described (Fleau, et al., J Med Chem 62, 10362-10375 (2019)). The proliferation index was estimated as PI=[(T4d−T2d)/(mUnt4d−mUnt2d)]*100; where T4d and T2d are the fluorescence intensity of the feet of the treated animals at days 4 and 2 post-infection respectively; mUnt4d and mUnt2d are the average fluorescence intensity of the feet of the untreated animals at 4 and 2 dpi respectively.

cytochrome P450 enzymes = assay: Inhibition of representative cytochrome P450 enzymes; type: in vitro ADME; details: 10 uM
[2] = system: T. cruzi serine carboxypeptidase (CBP); assay: Sensitivity of serine carboxypeptidase (CBP) knockout T. cruzi amastigotes; type: cell-based, Trypanosoma cruzi
Description: The in vitro anti-T. cruzi amastiogote activity assay was performed and optimized based on the protocol described previously (Canavaci, et al., PLoS neglected tropical diseases 4, e740 (2010)). The change in tdTomato fluorescence intensity was determined as a measurement of growth over 72 hours of culture. For assaying drug effects on extracellular amastigotes, trypomastigotes were collected from infected Vero cell cultures and converted in acidic media as previously described (Tomlinson, et al., Parasitology 110 (Pt 5), 547-554 (1995)). Amastigotes (50,000/well) were incubated with 2-fold serial dilutions of compounds for 48 hours. The ATP production was used as an indication of growth in this case, and was measured by ATPlite Luminescence ATP Detection Assay System (PerkinElmer). Both fluorescence and luminescence were read using a BioTek Synergy Hybrid Multi-Mode reader equipped with the software Gene5 v 2.0 (BioTek). […]
The CBPs knockout was produced using ribonucleoprotein (RNP) complexes as previously described (Soares Medeiros, et al., mBio 8 (2017)). Briefly, Brazil tdTomato strain epimastigotes were electroporated with RNP complexes containing SaCas9 and an sgRNA targeting CBP gene TcBrA4_0048170, plus a repair template containing stop codons in all three reading frames and the M13 sequence for use as a PCR anchor. […]

[3] = High dose 7-day toxicology studies in rats; type: in vivo; details: for dose proportionality of exposure: high dose 7-day toxicology studies, oral; for NOAEL dose: allometric scaling from rats
T. cruzi (Brazil strain) = assay: Mouse cure assays (daily oral treatment, cyclophosphamide immunosuppression, hemoculture, skeletal muscle qPCR); type: in vivo, Trypanosoma cruzi
Description: Cure assays: Male or female C57BL/6 mice were intraperitoneally infected with 10^4 trypomastigotes of the Brazil strain. Mouse infection was confirmed at 25-30 dpi by detection of CD8^+ T cells specific against the T. cruzi TSKb20 peptide in blood (Martin, et al., PLoS pathogens 2, e77 (2006)). Compounds resuspended in 1% carboxymethyl cellulose and 0.1% Tween 80, were administered daily by gavage at the specified concentrations. In order to optimally detect persistent infection, immune responses in the mice were suppressed by intraperitoneal injection of four doses of cyclophosphamide every 2-3 days (200 mg/kg/day), beginning one week after the end of therapeutic treatment. At the end of the immunosuppression regimen, peripheral blood was checked under light microscope for parasites and cultured in LDNT media (Bustamante, et al., The Journal of infectious diseases 209, 150-162 (2014)). […] In vivo killing time assays: C57BL/6 mice were infected with 2.5×10^5 Luciferase-expressing T. cruzi (Brazil strain) in the foot pads, and two days later one oral dose of AN14353 (25 mg/kg) was administered. The bioluminescent signal in the feet after i.p. injection of D-luciferin (PerkinElmer; 250 mg/kg) was measured in a Lumina II IVIS imager (PerkinElmer). Low dose short treatment: Hairless mice (SKH-1) were infected intraperitoneally with 5×10^4 Luciferase expressing T. cruzi (Colombiana strain) and orally treated from 12 to 22 dpi with 1, 2.5 or 5 mg/kg of AN16109 or AN15368. Bioluminiscence signal of the whole body was measure after D-luciferin injection in a Lumina II IVIS in vivo imager equipped with the Living Imaging 4.0 software (PerkinElmer).

anti-T. cruzi antibodies = assay: Luminex-based multiplex serological analysis in macaques; type: in vivo, rhesus macaque (Macaca mulatta); details: treated macaques, over 42 months after end of treatment
Excerpt: For a number of smaller proteins, fusions of up to 2 individual genes are employed for some target proteins in order to expand the array of antibodies being detected while controlling costs and complexity of the assay. (TritrypDb.org identifiers: Tc1=fusion of TcBrA4_0116860 and TcYC6_0028190; Tc2=fusion of TcBrA4_0088420 and TcBrA4_0101960; Tc3=fusion of TcBrA4_0104680 and TcBrA4_0101980; Tc4=fusion of TcBrA4_0028480 and TcBrA4_0088260; Tc5=fusion of TcYC6_0100010 and TcBrA4_0074300; Tc7=fusion of TcYC6_0083710 and TcBrA4_0130080; Tc8=TcYC6_0037170; Tc11=TcYC6_0124160; Tc17=fusion of TcBrA4_0028230 and TcBrA4_0029760; Kn107=TcCLB.508355.250; G10=TcCLB.504199.20). Macaque antibody binding to individual beads in the Multiplex assays was detected with donkey anti-human IgG (H+L) conjugated to phycoerythrin (Jackson ImmunoResearch) in a 1:200 dilution.

SMILES	genotoxicity, Ames (Standard Ames study)	affinity for a broad array of mammalian enzymes, receptors and ion channels [1]	reduction of established focal footpad infection by a single oral dose (T. cruzi (CL strain))	inhibition of representative cytochrome P450 enzymes (cytochrome P450 enzymes)	decrease of in vitro sensitivity of T. cruzi amastigotes after disruption of serine carboxypeptidases ([2]; CBP KO vs wild type (FIG. 2C))	dose proportionality of exposure [3]	resolution of infections in immunodeficient mice (T. cruzi (Brazil strain); IFN-gamma deficient mice, 25 mg/kg, 40 days (FIG. 1E))	resolution of established T. cruzi infections (T. cruzi (Brazil strain); wild-type mice, 25 mg/kg, 40 day treatment (FIG. 1D))	antibody levels to recombinant T. cruzi proteins (anti-T. cruzi antibodies)	increased resistance after disruption of CBPs ([2]; intracellular amastigotes, TcCBP KO vs WT (FIG. 5E)) [×]	NOAEL dose ([3]; humans) [mg/kg]	NOAEL dose ([3]; monkeys) [mg/kg]	NOAEL ([3]; rats) [mg/kg]	drug accumulation between the first and seventh days ([3]; rats)	total plasma exposure (AUC0-24 h) ([3]; rats, 120 mg/kg/day)	effects on hematology and clinical chemistry ([3]; rats, 120 mg/kg/day or lower)	effects on hematology and clinical chemistry ([3]; rats, 150 mg/kg)	cure of T. cruzi infection in mice (T. cruzi (Brazil strain); in words (FIGS. 3A-3E))	minimal efficacious dose (T. cruzi (Brazil strain); mice (FIG. 3E)) [mg/kg]
Cc1c(C(=O)N[C@H](C(=O)OCc2ccc(F)c(F)c2)C(C)C)ccc2c1B(O)OC2 [AN14353]	non-genotoxic	little to no affinity	activity at reduced doses	did not demonstrate significant inhibition	up to 100 fold	non-dose proportional exposure	consistently resolve	consistently resolve established T. cruzi infections											
Cc1c(C(=O)N[C@H](C(=O)OCC2CCOCC2)C(C)C)ccc2c1B(O)OC2 [AN15368]	non-genotoxic	little to no affinity		did not demonstrate significant inhibition		good dose proportional exposure			declines in antibody levels	1000	19.4	60.5	120	no evidence of drug accumulation	approximately 30,000 ng*hr/mL	none	modest effects	cures T. cruzi infection in mice	2.5
